Experiments:
[1] = target: T1, Btk (Homo sapiens, UniProt Q06187); assay: Analysis of in vitro inhibitory activity of Btk (cell-free TR-FRET kinase assay); assay type: biochemical; conditions: for IC50: cell-free TR-FRET, ATP at Km, 1 h, read-out: Efficacy (Btk IC50); for inhibitory effects against Btk (in words): summary of Table 1 efficacy data
Description: In a cell-free kinase assay, the method described below or a similar method was used to determine the half inhibitory concentration (IC50) of the compound of the present invention on Btk.
Btk kinase activity was determined using a time-resolved fluorescence resonance energy transfer (TR-FRET) methodology. Measurements were performed in a reaction volume of 50 μL using 96-well assay plates. […] The reaction was quenched by the addition of 1.2 equivalents of EDTA (relative to divalent cation) in […] of 1× Lance buffer (Perkin-Elmer). Streptavidin-APC (Perkin-Elmer) and Eu-labeled p-Tyr100 antibody (Perkin-Elmer) in 1× Lance buffer were added in a volume of 25 μL to give final concentrations of 100 nM and 2.5 nM, respectively. The mixture was allowed to incubate for 1 h. The TR-FRET signal was measured on a multimode plate reader at an excitation wavelength (λEx) of 330 nm and detection wavelengths (λEm) of 615 and 665 nm. The activity was determined by the ratio of fluorescence at 665 nm to that at 615 nm. For each compound, the enzyme activity was measured in the presence of different concentrations of the compound. Negative control reactions were performed in the absence of inhibitor in replicates of six, and two no-enzyme controls were used to determine baseline fluorescence levels. IC50 was obtained by fitting using the program Batch Ki (Kuzmic, et al. (2000), Anal. Biochem. 286:45-50).
The Example compounds 1-50 of the present invention were synthesized according to the above Synthetic Schemes I to VII. In the analysis of in vitro inhibitory activity of Btk, the IC50 values of the Example compounds 1-50 of the present invention were determined. The IC50 values are given according to the interval of the IC50 value, where “+++” means IC50<100 nM; “++” means 100 nM≤IC50<1000 nM; and “+” means 1000 nM≤IC50<10000 nM.

[2] = test system: OCI-LY7 cells; assay: Cell viability assay (CellTiter-Glo, 72 h); assay type: cell-based; conditions: Homo sapiens, read-out: Results from inhibition of OCI-LY7 cells (IC50)
Description: An in vitro cell viability assay was conducted using the compounds of Examples 1-50 following the steps below:
1. After OCI-LY7 cells were recovered, they were cultured at 37° C., 5% CO2, and 95% humidity.
2. For the compounds of Examples 1-50, 8 compound solutions at different concentrations were prepared, respectively. 50 μL of the compound solution at each concentration was added to a 96-well black plate.
3. The cell concentration was adjusted to about 30,000 cells/mL. 100 μL of cell suspension was added to the 96-well plate, and mixed well. The final cell density was about 3,000 cells/well.
4. The 96-well plate was placed at 37° C., 5% CO2, and 95% humidity for 72 h.
5. The cell survival rate was measured by the method of CellTiter-Glo® Luminescent Cell Viability Assay (Promega, Cat #G7572). The fluorescence data were read on a microplate reader (EnVision™, a multi-function microplate detector, PerkinElmer).
6. The obtained fluorescence data were analyzed using GraphPad Prism software. The cell survival rate was calculated for each example compound at each concentration, and the IC50 interval of each example compound was obtained.

[3] = target: T1, Btk; assay: Covalent inhibition assay on BTK (fluorescent probe labeling, SDS-PAGE scanning); assay type: binding; design: purchased carna 08-180; conditions: for binding mode to recombinant BTK: 0.5 μM and 5 μM, 1 h incubation; for inhibition of the labeling of BTK by the fluorescent probe: 1 h incubation with BTK, then probe 1 h, 1% DMSO control
Description: FIG. 1 is a graph showing the scanning results from SDS-PAGE electrophoresis after the compounds of Examples 23 and 26 at two concentrations (0.5 μM and 5 μM) were incubated with BTK for 1 h, and then a probe prepared according to Sci. Rep. 2015, 5, 16136 was added and incubated for 1 h.
This assay was carried out using the compounds of Examples 23 and 26. The reagents used are as follows:
BTK kinase: brand name: carna, product number: 08-180, concentration: […];
BTK enzyme activity buffer: 1× kinase buffer+1 mM DTT+5 mM MgCl2+50 nM SEB;
BTK probe (100 μM): prepared according to Sci. Rep. 2015, 5, 16136 (Pan Zhengying, et al.);
The compounds of Examples 23 and 26: prepared as described above, and prepared at two concentrations (0.5 μM/5 μM) respectively.
The steps of the assay are as follows:
1. The sample order was 1% DMSO, 0.5 μM compound of Example 23, 5 μM compound of Example 23, 0.5 μM compound of Example 26, and 5 μM compound of Example 26. The compounds, BTK, probe and 2× loading buffer were added to 5 200 μl EP tubes using a pipette.
2. The final concentrations of the compounds of Examples 23 and 26 were 0.5 μM and 5 μM, and the control group was 1% DMSO. The compounds were first prepared with DMSO to 100× the above final concentrations, and diluted ×40 with BTK enzyme activity Buffer. For the reaction, 4 μl/well of the compound was added to the 10 μl system using a pipette to reach its final concentration. For 1% DMSO, the stock solution was diluted ×40 with BTK enzyme activity Buffer.
3. The BTK (200 ng/μl) was diluted to 10 ng/μl, and the probe (100 μM) was diluted to 2.5 μM. They were placed on ice for later use, and the probe was protected from light.
4. To each tube was added 4 μl of BTK, followed by 4 μl of the Example compound. After 1 h incubation, the probe was added, and then incubated for 1 h in the dark.
5. 2× loading buffer was prepared. After the probe was incubated, 10 μl of the 2× loading buffer was added to each well, mixed well, and heated at 100° C. for 10 min to prepare the sample.
6. 10 μl (containing 20 ng of BTK, and 0.5 μM probe) was loaded. Scanning was performed after SDS-PAGE. The order of samples was the order of spotting.
If it is a compound that reversibly binds to BTK, the probe would bind to the released BTK during 1 h incubation with a mixture of the compound and BTK, leading to a fluorescent band.

T1 sequence (Q06187 whole entry): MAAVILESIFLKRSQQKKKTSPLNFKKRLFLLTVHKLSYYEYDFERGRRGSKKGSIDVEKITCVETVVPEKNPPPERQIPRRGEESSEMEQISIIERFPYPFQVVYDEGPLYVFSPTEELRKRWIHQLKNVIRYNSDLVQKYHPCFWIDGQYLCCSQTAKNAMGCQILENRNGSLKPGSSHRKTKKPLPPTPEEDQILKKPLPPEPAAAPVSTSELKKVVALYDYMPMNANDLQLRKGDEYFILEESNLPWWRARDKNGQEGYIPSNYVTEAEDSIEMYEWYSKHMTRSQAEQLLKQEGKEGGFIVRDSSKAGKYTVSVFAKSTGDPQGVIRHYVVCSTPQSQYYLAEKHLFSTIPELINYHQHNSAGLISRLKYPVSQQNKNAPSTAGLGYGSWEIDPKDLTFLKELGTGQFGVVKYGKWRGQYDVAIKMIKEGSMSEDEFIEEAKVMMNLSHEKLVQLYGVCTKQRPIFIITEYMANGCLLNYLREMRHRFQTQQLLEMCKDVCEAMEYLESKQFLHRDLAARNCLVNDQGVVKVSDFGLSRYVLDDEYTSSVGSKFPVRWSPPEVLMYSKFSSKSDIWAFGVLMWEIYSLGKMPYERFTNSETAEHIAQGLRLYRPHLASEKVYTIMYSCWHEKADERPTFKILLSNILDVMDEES

Structure (SMILES)	IC50 [1] [nM]	IC50 [2] [nM]	binding mode to recombinant BTK [3]	inhibition of the labeling of BTK by the fluorescent probe ([3]; compound 0.5 μM)	inhibition of the labeling of BTK by the fluorescent probe ([3]; compound 5 μM)	inhibitory effects against Btk (in words) [1]
[2H]C([2H])=C([2H])C(=O)N(CC)c1cccc(Nc2ncc3cc(-c4c(C)cc[nH]c4=O)ccc3n2)c1 [Example 48]	< 100	< 500				
[2H]C([2H])=C([2H])C(=O)N(c1cccc(Nc2ncc3cc(-c4c(C)cc[nH]c4=O)ccc3n2)c1)C([2H])([2H])C([2H])([2H])[2H] [Example 49]	< 100	< 500				
[2H]C([2H])=C([2H])C(=O)N(CCOC)c1cccc(Nc2ncc3cc(-c4c(C)cc[nH]c4=O)ccc3n2)c1 [Example 50]	< 100	< 500				particularly excellent inhibitory effects

Now from value to molecule, other results behind:

IC50 [1] [nM]	IC50 [2] [nM]	binding mode to recombinant BTK [3]	inhibition of the labeling of BTK by the fluorescent probe ([3]; compound 0.5 μM)	inhibition of the labeling of BTK by the fluorescent probe ([3]; compound 5 μM)	Structure (SMILES)	inhibitory effects against Btk (in words) [1]
< 100	< 500	irreversibly covalently binds	completely inhibit	completely inhibit	C=CC(=O)N(C)c1cccc(Nc2ncc3cc(-c4c(C)cc[nH]c4=O)ccc3n2)c1 [Example 23]	particularly excellent inhibitory effects
< 100	< 500	irreversibly covalently binds	completely inhibit	completely inhibit	C=CC(=O)N(CC)c1cccc(Nc2ncc3cc(-c4c(C)cc[nH]c4=O)ccc3n2)c1 [Example 26]	particularly excellent inhibitory effects

Reference: patent publication US20220017484A1, “INHIBITOR OF BRUTON TYROSINE KINASE” (BEIJING RECIPROCAPHARMACEUTICALS CO., LTD., priority 2018, published 2022)
